Laboratory results as given in patent US20250375453A1, “HIGH-EFFICIENCY ANTIMICROBIAL COMPOSITION” (CM4CURE S.A., priority 2023, published 2025).

Columns and labels:
Candida krusei = settings: cited from earlier work
[1] = chlorhexidine base; cited from earlier work
[2] = system: Vancomycin-resistant Enterococcus faecalis (VRE, ATCC BAA-2573); assay: Synergy checkerboard assay / broth micro-dilution MIC (ISO 20776-1 with modifications); format: cell-based
Procedure: • 1. Preparation of the inoculum of Vancomycin-resistant Enterococcus faecalis (VRE, ATCC BAA-2573). Inoculum is prepared by suspension of 1 colony of bacteria (medium size colony from Tryptic Soy agar plate) in 3 ml of Tryptic Soy broth (TSB) using a 200 μL tip. The solution is mixed by vortexing and incubated at 37° C. overnight (19-24 hours) under shaking at 200 rpm. • 2. Preparation of the Antimicrobial dilution on the day of the experiment. Stock solutions are performed with distilled water for all antimicrobial compound except for Fluometacyl (ethanol). Dilution for each condition is made in Mueller-Hinton broth (NMB). 50p of APIs dilution is added to wells of a 96 wells microplate (each condition in duplicate-triplicate). • Antimicrobial compounds were prepared as follows: • Fluometacyl (F) (4 mg/mL in 100% EtOH) served as a master stock. To obtain the final concentration of 40 μg/ml in the bacterial suspension, initial stock of 160 μg/ml in Mueller-Hinton broth (MHB) was prepared and further 2-fold diluted using the following serial dilution scheme: • (1): 40 μg/ml (160 μg/ml, prepared in MHB) • (2): 20 μg/ml (80 μg/ml, dilution in MHB) • (3): 10 μg/ml (40 μg/ml, dilution in MHB) • (4): 5 μg/ml (20 μg/ml, dilution in MHB) • (5): 2.5 μg/ml (10 μg/ml, dilution in MHB) • (6): 1.25 μg/ml (5 μg/ml, dilution in MHB) • Chlorhexidine acetate (CHLX) (2 mg/mL in H2O) served as a master stock. To obtain the final concentration of 4 μg/ml in the bacterial suspension, initial stock of 16 μg/ml in MHB was prepared and further 2-fold diluted using the following serial dilution scheme: • (1): 8 μg/ml (32 μg/ml, prepared in MHB) • (2): 4 μg/ml (16 μg/ml, prepared in MHB) • (3): 2 μg/ml (8 μg/ml, dilution in MHB) • (4): 1 μg/ml (4 μg/ml, dilution in MHB) • (5): 0.5 μg/ml (2 μg/ml, dilution in MHB) • (6): 0.25 μg/ml (1 μg/ml, dilution in MHB) • 3. Preparation of VRE. Before the experiment, the VRE bacterial suspension (incubated overnight) is diluted 100× in TSB in 4 mL of TSB and grown at 37 C under agitation 200 rpm until OD600 reaches 0.08 to 0.16. This corresponds to the cell density […]. 100 μl of the bacterial solution (OD600 ranging from 0.08 to 0.16) is added to 9 900 μL of Mueller-Hinton Broth (MHB) (dilution 1:100). • 4. Preparation of a 96-well plate. 100 μL of bacteria (diluted 1:100 in MHB from the point 3) is added in each well of the plate containing 100 μL of the serially diluted APIs alone or in combinations as shown in the p. 2. Bacteria should be added into the 96-well plate within the 30 minutes following the preparation of the bacteria in order to maintain the same number of CFU/mL. Plates are incubated at 37° C. overnight. A condition with MHB medium alone or bacteria without APIs will also be added as the control conditions. Since fluometacyl is dissolved in ethanol, extra conditions are added: MHB with ethanol in order to assess the effect of ethanol on bacterial growth. • Following scheme is applied: • 2 antibacterial compounds: 50 μL of a antimicrobial 1+50 μL of a antimicrobial 2+100 μL of bacterial suspension in MHB • 1 antibacterial compound: 50 μL of a drug 1/2+50 μL of MHB+100 μL of bacterial suspension in MHB • Growth control: 100 μL MHB (+/−Ethanol)+100 μL of bacterial suspension • BLANK: MHB only • 5. CFU counting of the initial challenge inoculum. 10 μL of the solution of the bacteria used as the positive control is diluted in 10 mL of TSB. 100 μL is spread on Tryptic Soy agar (done in triplicate) and incubated at 37° C. overnight • 6. Results. The MIC is the lowest concentration that inhibits completely the visible growth of the bacteria (no turbidity in a well). The OD at 600 nm is also recorded for each well as back-up data.
Synergy evaluation resulting from the comparison between activity of the combination of the antimicrobial compounds and their individual activities was represented as the Fractional Inhibitory Concentration (FIC) index value. […]

Klebsiella spp. = settings: cited from earlier work
Aspergillus spp. = settings: cited from earlier work
[3] = system: Staphylococcus aureus (MRSA); assay: MIC in monotherapy and in combination therapy (ISO standard 20776-1); format: cell-based
Text: (§1) Summary of MIC Values for Fluometacyl (FLC)+Chlorhexidine (CHX) Tested Against MRSA, Enterococcus faecalis (VRE), Pseudomonas aeruginosa (PA) and Candida albicans (CA).
(§2) By Minimum Inhibitory Concentration (MIC) one means the lowest concentration of antimicrobial that prevents visible growth of a microorganism (determined according to ISO standard 20776-1).
(§3) This finds an implication in combining many known antimicrobials together rather than discovering new chemical entities.

[4] = system: Pseudomonas aeruginosa (PA); assay: as above; format: cell-based
Text: as §1, §2, §3

Candida albicans (CA) = assay: as above; format: cell-based
Text: as §1, §2, §3

[5] = system: Staphylococcus aureus MRSA; settings: cited from earlier work
[6] = MIC combination / MIC monotherapy

- MIC ([2]; Enterococcus faecalis, antimicrobial alone, read-out: MIC Monotherapy (X)): 4000 µg/mL
- MIC combination dual therapy (Y) ([2]; in FLC + CHX combination): 500 to 2000 µg/mL
- MIC ([3]; Staphylococcus aureus, MRSA, antimicrobial alone, read-out: MIC Monotherapy (X)): 1000 µg/mL
- MIC combination dual therapy (Y) ([3]; in FLC + CHX combination): 250 to 500 µg/mL
- MIC ([4]; Pseudomonas aeruginosa, antimicrobial alone, read-out: MIC Monotherapy (X)): 16000 µg/mL
- MIC combination dual therapy (Y) ([4]; in FLC + CHX combination): 4000 µg/mL
- MIC (Candida albicans (CA); Candida albicans, antimicrobial alone, read-out: MIC Monotherapy (X)): 4000 µg/mL
- MIC combination dual therapy (Y) (Candida albicans (CA); in FLC + CHX combination): 2000 µg/mL
Compound: [H]/N=C(\N/C(=N/[H])NCCCCCCNC(=N)NC(=N)Nc1ccc(Cl)cc1)Nc1ccc(Cl)cc1 [Chlorhexidine, chlorhexidine]
- MIC of chlorhexdine (Candida krusei): 150 µg/mL
- solubility in water [1]: insoluble in water
- Ratio Y/X [2, 6]: 0.125-0.5
- MIC of chlorhexdine (Klebsiella spp.): 8 to 16 µg/mL
- MIC of chlorhexdine (Aspergillus spp.): 8 to 64 µg/mL
- Ratio Y/X [3, 6]: 0.25-0.5
- Ratio Y/X [4, 6]: 0.25
- Ratio Y/X (Candida albicans (CA); [6]): 0.5
- MIC of chlorhexdine [5]: 2 to 8 µg/mL
